This is an account of results in PubChem BioAssay AID1996.

In brackets after ≈: the same amount, converted by molar mass. Some results are limits rather than exact numbers.

For the data set the following is noted: buffer; pH 7.4; 200.0 µM.
In turn, `C=CCNC(=S)Nc1ccc(N(C)C)cc1` had a kinetic solubility greater than 35.3 µg/mL.

The compound `Cc1ccc(C(=O)Nc2ccc(C(=O)N3CCCCC3)cc2)o1` registered a solubility (kinetic) greater than 46.9 µg/mL.

In the case of `CCn1cc(C(=O)OCC(=O)Nc2ccccc2OC(F)F)c(=O)c2ccc(C)nc21`, the kinetic solubility was 4.8 µg/mL (≈ 11.1 µM).

`CCOC(=O)Cc1csc(NC(=O)COC(=O)/C=C/c2ccc(OC)cc2)n1` displayed a kinetic solubility of 4.5 µg/mL (≈ 11.1 µM).

`CCc1ccc(C(=O)Nc2cccnc2Oc2ccc(Cl)cc2)cc1` displayed a kinetic solubility of 1.5 µg/mL (≈ 4.25 µM).

Compound `COc1cccc(OC)c1C(=O)Nc1cccc(-c2nc3ccccc3[nH]2)c1` had a solubility (kinetic) of 11.1 µg/mL (≈ 29.7 µM).

`Cc1cc(C)nc(Nc2cccc3ccccc23)n1`: the solubility (kinetic) came out at 18.7 µg/mL (≈ 75 µM).

With `COc1ccc(NS(=O)(=O)c2cc(NC(=O)c3ccccn3)ccc2OC)cc1Br`, the kinetic solubility amounted to 3.4 µg/mL (≈ 6.91 µM).

For the compound `COCC(=O)OC/C(O)=C(\C#N)c1nc2ccccc2[nH]1`, the kinetic solubility is greater than 43.1 µg/mL.

Turning to `OC(CN1CCOCC1)(c1ccccc1)c1ccccn1` (configuration not stated), the kinetic solubility is greater than 42.7 µg/mL.

`O=C(COC(=O)c1ccccc1O)NC(c1ccccc1)c1ccccc1` came in with a solubility (kinetic) of 5.9 µg/mL (≈ 16.3 µM).

Compound `O=C(N/C(=C/c1ccco1)C(=O)N1CCOCC1)c1cccs1` came in with a kinetic solubility greater than 49.9 µg/mL.

With `CCn1c(COc2ccccc2OC)nc2ccccc21`, the solubility (kinetic) amounted to 41.9 µg/mL (≈ 148 µM).

The compound `CCOC(=O)CCCNC(=O)CCNC(=O)c1ccc(OCCC(C)C)cc1` had a kinetic solubility greater than 58.9 µg/mL.

`O=c1[nH]c(NCCO)c(N=Cc2ccccc2)c(=O)[nH]1` displayed a solubility (kinetic) greater than 41.1 µg/mL.

`CCn1c(=O)c(C(=O)Nc2ccc(C)cc2)c(O)c2ccccc21` had a kinetic solubility of less than 0.3 µg/mL.

`CC1C(=O)N2CCCc3cc(NS(=O)(=O)c4ccccc4)cc1c32` (configuration not stated): the kinetic solubility is greater than 51.4 µg/mL.

In turn, `Cc1ccc(S(C)(=O)=O)cc1C(=O)NC(C)C1CC2CCC1C2` (configuration not stated) came in with a kinetic solubility of 47.8 µg/mL (≈ 142 µM).

`O=C(c1cc(-c2ccc(Cl)cc2Cl)on1)N1CCCC1` had a kinetic solubility of 1.8 µg/mL (≈ 5.78 µM).

Compound `COc1ccccc1/C=C/C(=O)OCC(=O)N1CCCCC1` displayed a kinetic solubility greater than 45.5 µg/mL.

Turning to `N#Cc1ccc(S(=O)(=O)NC2CC2)cc1`, the solubility (kinetic) was greater than 33.3 µg/mL.

Take `COc1ccc(NC(=O)[C@@H]2CCCN2S(=O)(=O)c2ccc(Cl)cc2)cc1`: the solubility (kinetic) was greater than 59.2 µg/mL.

As to `S=C(NCc1ccco1)Nc1ccc(Br)cn1`, the kinetic solubility is 5 µg/mL (≈ 16 µM).

`CSCCC(=O)N1CCN(CC(=O)N2CCCC2)CC1` gave a kinetic solubility greater than 44.9 µg/mL.

In turn, `CSc1ccc(C2CC(=O)Nc3c2c(=O)n(C)c(=O)n3C)cc1` (configuration not stated) gave a kinetic solubility greater than 49.7 µg/mL.

The compound `COc1cccc(OC)c1C(=O)NC(=S)NCc1cccnc1` showed a solubility (kinetic) of 11.3 µg/mL (≈ 34.1 µM).

On to `Cc1ccccc1OCC(=O)NCC(c1ccco1)N1CCCCC1` (configuration not stated), for which the solubility (kinetic) amounted to 40.1 µg/mL (≈ 117 µM).

`Cc1cc(NC(=O)CSc2ccnc(=O)[nH]2)no1` had a solubility (kinetic) greater than 39.9 µg/mL.

`CC(C)(C)CNc1cc(N2CCOCC2)ccc1[N+](=O)[O-]` had a kinetic solubility of 1.8 µg/mL (≈ 6.14 µM).

On to `N#CCSc1nc2ccccc2c(=O)n1CCCC(=O)NCc1ccco1`, for which the kinetic solubility came out at 2.5 µg/mL (≈ 6.54 µM).

`Cc1cccc2c(C(=O)O)c3cccc(C)c3nc12` displayed a solubility (kinetic) of 34 µg/mL (≈ 135 µM).

The compound `O=C(O)C1C2CCC(O2)C1C(=O)Nc1ccc(F)c(F)c1` (configuration not stated) showed a solubility (kinetic) of 40.5 µg/mL (≈ 136 µM).

Consider `COc1ccc(/C=C/C(=O)NCc2ccccn2)cc1OC`, for which the kinetic solubility was greater than 44.8 µg/mL.

`Cc1cccc(NC(=S)NC2CC3C=CC2C3)c1` (configuration not stated) yielded a solubility (kinetic) of 6.2 µg/mL (≈ 24 µM).

The compound `CC/C(O)=C1\C(=O)CC(C)(C)CC1=NCCc1nc2ccccc2[nH]1` gave a kinetic solubility greater than 50.9 µg/mL.

`Cc1csc(SCC(=O)NC(=O)NC(C)C)n1`: the solubility (kinetic) was greater than 41 µg/mL.

In the case of `CCCn1c(=S)[nH]c2cc(Cl)ccc21`, the solubility (kinetic) was 32.3 µg/mL (≈ 142 µM).

On to `COc1ccc(NC(=O)CCN2C(=O)c3ccccc3C2=O)c(OC)c1`, for which the kinetic solubility amounted to 21.8 µg/mL (≈ 61.5 µM).

As for `Clc1cccc(Cl)c1CN1CCN(c2ncccn2)CC1`, the kinetic solubility was found to be 17.2 µg/mL (≈ 53.2 µM).

In turn, `CC(C)CNCC1OCc2ccccc2CO1.Cl` yielded a kinetic solubility greater than 40.8 µg/mL.

`Cc1cc(NC(=O)C(C)Oc2ccc(C(C)(C)C)cc2)no1` (configuration not stated): the solubility (kinetic) amounted to 4 µg/mL (≈ 13.2 µM).

In turn, `FC(F)(F)c1nc(=S)c2ccccc2[nH]1` displayed a kinetic solubility of 34.5 µg/mL (≈ 150 µM).

Turning to `O=C1CN=C(c2ccc(Cl)cc2)c2oc3ccccc3c2N1`, the solubility (kinetic) was less than 0.3 µg/mL.

Consider `O=C(O)C(=O)O.c1ccc2cc(OCCCn3ccnc3)ccc2c1`, for which the solubility (kinetic) is greater than 51.4 µg/mL.

For `O=c1[nH]c2ccccc2o1`, the kinetic solubility was greater than 20.3 µg/mL.

On to `Cl.OC(CNCc1ccccc1)COCc1ccc(Cl)cc1` (configuration not stated), for which the solubility (kinetic) turned out to be 34.2 µg/mL.

Turning to `COc1ccc(-n2nc(C)c3sc(C)nc3c2=O)cc1`, the kinetic solubility was greater than 43.1 µg/mL.

Take `CCOC(=O)c1nc(-c2ccccc2)sc1C(C)=O`: the solubility (kinetic) came to 35.9 µg/mL (≈ 130 µM).

In the case of `Cc1cccc(C)c1NC(=O)CSc1n[nH]c(=O)n1C1CC1`, the kinetic solubility is greater than 47.8 µg/mL.

For `COc1ccccc1CC(=O)NCC(c1ccco1)N1CCCCC1` (configuration not stated), the kinetic solubility was greater than 51.4 µg/mL.

For `O=C(NC(=S)Nc1ccc2oc(=O)ccc2c1)c1ccccc1F`, the kinetic solubility was determined as 1.4 µg/mL (≈ 4.09 µM).

`CC(NC(=O)CCC(=O)NC(C)c1ccccc1)c1ccccc1` (configuration not stated) displayed a solubility (kinetic) of 46.2 µg/mL (≈ 142 µM).

For orientation: kinetic solubility means solubility judged after dilution from a stock solution rather than from solid.
